Results: patent US6376511B2, “8-aminoquinolines” (The University of Mississippi, priority 1999, dated 2002)
Read-outs that look alike come from different tables or passages of the source.

What was measured:
P. carinii = experiment: In vitro antipneumocystis activity; type: cell-based; conditions: Pneumocystis carinii, 168 h, read-out: % of control on day 7
L. donovani Chagasi PP75 = experiment: In vitro anti-Leishmania activity, Giemsa counts; type: cell-based; conditions: control 6.35
[1] = tested on: Plasmodium berghei KBG-173; experiment: Prophylactic test, Plasmodium berghei infection in mice, oral; type: in vivo; conditions: for Mice surviving day 60/Mice infected and treated: single dose of 2 mg/kg
Text: CD-I male or female mice, 5 weeks of age, were infected with 5×10^4 parasitized erythrocytes ot Plasmodium berghei KBG-173 mm strain. Blood films were taken on day +6 and weekly thereafter until day+30. […]

Toxoplasma gondii = experiment: In vitro evaluation against Toxoplasma gondii; type: cell-based; conditions: preliminary evaluation
[2] = tested on: trypanosome isolate KETRI 269; experiment: Antitrypanosomal activity, trypanosome isolates grown as blood forms in HMI-18; type: cell-based, Trypanosoma; conditions: Trypanosoma, 48 h
Procedure: (§1) Compounds were tested vs. trypanosome isolates grown as blood forms in HMI-18 (Hirumi H., Hirumi, K. 1989. Continuous Cuitivation of Trypanosoma brucei bloodstream forms in a medium containing a low concentration of serum portein without feeder cell layers. J. Parasitol. 75:985-989) containing 20% horse serum.

[3] = tested on: trypanosome isolate KETRI 243; experiment: as above; type: cell-based, Trypanosoma; conditions: Trypanosoma, 48 h
Procedure: as §1

[4] = tested on: trypanosome isolate KETRI 243As103; experiment: as above; type: cell-based, Trypanosoma; conditions: Trypanosoma, 48 h
Procedure: as §1

[5] = tested on: trypanosome isolate EATRO Lab 110; experiment: as above; type: cell-based, Trypanosoma; conditions: Trypanosoma, 48 h
Procedure: as §1

L. mexicana amazonensis = experiment: In vitro anti-Leishmania activity, Giemsa counts; type: cell-based; conditions: 10 μg/mL; control 15.10 ± 2.18
Leishmania = experiment: In vitro activity against a variety of strains of Leishmania; type: cell-based
[6] = tested on: Plasmodium berghei KBG-173; type: in vivo; conditions: for Parasitemia Day 6: percentage of red blood cells with parasites, control 31.8
Procedure: Blood Schizontocidal Test (Trophozoite-Induced Plasmodium berghei Infection in mice University of Miami, Test System: Thompson Test
Drugs were mixed in 0.5% hydroxycellulose 0.1% Tween 80 and administered orally b.i.d. on days 3, 4 and 5 postinfection. CD-1 male or female mice, 5 weeks of age, were infected with 5×10^4 parasitized erythrocytes of Plasmodium berghei KBG-173 mm strain. Blood films were taken on day +6 and weekly thereafter until day +60. Parasitemias were calculated and SD90 value (dose suppressing 90% of the parasites in treated groups compared with the infected non-treated controls) on day +6 postinfection. Mortality data was tabulated for 60 days at which time all mice surviving that were blood film negative were considered cured.
[…] The activity of these compounds were compared with the untreated control and “racemate” which is a mixture of equal amount of each enantiomer X and Y. In untreated controls, death occurs within 8-9 days. Compounds which are effective against Plasmodium berghei infection increase the mean survival time of the infected animals when compared with the untreated controls. Mice that survive after thirty days and are free of parasites in blood are considered cured.
Efficacy of the drug is determined by the number of cures at the end of a 30 day period and the increase in mean survival time over the control (ΔMST). The effect of the test drugs also could be determined by the reduction of the parasitemia (percentage of the red blood cells detected with the parasites) over the untreated control on day 6, one day after the treatment is completed. Both these methods yield virtually identical results. If the dose of test compounds are inadequate, after initial clearance, residual parasites will multiply and relapses will occur within thirty days. The blood schizontocidal activities (suppressive antimalarial) of X, Y, and racemate against P. berghei in mice are shown in Table 11.

P. berghei = conditions: single dose 72 h after infection, cited from earlier work
Pneumocystis carinii = experiment: Anti-Pneumocystis carinii test (induced Pneumocystis carinii infection in immunosuppressed mice), oral; type: in vivo; conditions: mice
P. cynomolgi = conditions: rhesus monkey, cited from earlier work
[7] = 0.25 mg/kg/day, 0.75 mg/kg total
[8] = oral 1.3 mg/kg/day (x21), mean score on 0 to 5+ scale

COc1cc(NC(C)CCCN)c2nccc(C)c2c1Oc1ccc(Cl)c(Cl)c1 (racemic) [DN3-27-1, 8-[(4-amino-1-methylbutyl)amino]-5-(3,4-dichlorophenoxy)-6-methoxy-4-methylquinoline]
activity at 0.1 µg/mL (P. carinii; concentration 0.1 μg/ml): 76.7% | activity at 1 µg/mL (P. carinii; concentration 1.0 μg/ml): 40.5% | activity at 10 µg/mL (P. carinii; concentration 10 μg/ml): 3.2% | Giemsa Counts (L. donovani Chagasi PP75; 50 ng/mL): 0.95 ± 0.27 | Giemsa Counts (L. donovani Chagasi PP75; 150 ng/mL): 0.10 ± 0.03 | Giemsa Counts (L. donovani Chagasi PP75; 450 ng/mL): 0.00 ± 0.00 | Mice infected and Mice/treated surviving day 60 ([1]; day of treatment 1, dose 2 mg/kg): 5/5 | Mice infected and Mice/treated surviving day 60 ([1]; day of treatment 1, dose 8 mg/kg): 5/5 | Mice infected and Mice/treated surviving day 60 ([1]; day of treatment 1, dose 32 mg/kg): 5/5 | Mice infected and Mice/treated surviving day 60 ([1]; day of treatment 1, dose 128 mg/kg): 5/5 | Mice infected and Mice/treated surviving day 60 ([1]; day of treatment 2, dose 2 mg/kg): 5/5 | Mice infected and Mice/treated surviving day 60 ([1]; day of treatment 2, dose 8 mg/kg): 5/5 | Mice infected and Mice/treated surviving day 60 ([1]; day of treatment 2, dose 32 mg/kg): 5/5 | Mice infected and Mice/treated surviving day 60 ([1]; day of treatment 2, dose 128 mg/kg): 5/5 | Mice infected and Mice/treated surviving day 60 ([1]; day of treatment -1, dose 2 mg/kg): 5/5 | Mice infected and Mice/treated surviving day 60 ([1]; day of treatment -1, dose 8 mg/kg): 5/5 | Mice infected and Mice/treated surviving day 60 ([1]; day of treatment -1, dose 32 mg/kg): 5/5 | Mice infected and Mice/treated surviving day 60 ([1]; day of treatment -1, dose 128 mg/kg): 5/5 | Mice infected and Mice/treated surviving day 60 ([1]; day of treatment -2, dose 2 mg/kg): 5/5 | Mice infected and Mice/treated surviving day 60 ([1]; day of treatment -2, dose 8 mg/kg): 5/5 | Mice infected and Mice/treated surviving day 60 ([1]; day of treatment -2, dose 32 mg/kg): 5/5 | Mice infected and Mice/treated surviving day 60 ([1]; day of treatment -2, dose 128 mg/kg): 5/5 | Mice infected and Mice/treated surviving day 60 ([1]; day of treatment -3, dose 2 mg/kg): 0/5 | Mice infected and Mice/treated surviving day 60 ([1]; day of treatment -3, dose 8 mg/kg): 5/5 | Mice infected and Mice/treated surviving day 60 ([1]; day of treatment -3, dose 32 mg/kg): 5/5 | Mice infected and Mice/treated surviving day 60 ([1]; day of treatment -3, dose 128 mg/kg): 5/5 | protection from malaria ([1]; single dose of 2 mg/kg within 2 days preinfection through 2 days post infection, mice): completely protected from malaria | Mice surviving day 60/Mice infected and treated ([1]; day of treatment 2 (Table 5)): 2/5 | Mice surviving day 60/Mice infected and treated ([1]; day of treatment -2 (Table 5)): 0/5 | Mice surviving day 60/Mice infected and treated ([1]; day of treatment -3 (Table 5)): 0/5 | Mice surviving day 60/Mice infected and treated ([1]; day of treatment -4 (Table 5)): 0/5 | Mice surviving day 60/Mice infected and treated ([1]; day of treatment -5 (Table 5)): 0/5 | activity in vitro against Toxoplasma gondii (concentration) (Toxoplasma gondii): around 50 μM | IC50 [2]: 5 µM | IC50 [3]: 29 µM | IC50 [4]: 10.9 µM | IC50 [5]: 9.4 µM | Giemsa Counts (L. mexicana amazonensis): 1.30 ± 0.38 | in vitro activity against a variety of strains of Leishmania (Leishmania): in vitro activity at very low concentrations | Mice Alive Day 26 [6, 7]: 0/5 | ΔMST (increase in mean survival time over the control) [6, 7]: 11.6 days | Parasitemia Day 6 [6, 7]: 4.8 | Mice Alive Day 26 ([6]; 1 mg/kg/day, 3 mg/kg total): 0/5 | ΔMST (increase in mean survival time over the control) ([6]; 1 mg/kg/day, 3 mg/kg total): 10.2 days | Parasitemia Day 6 ([6]; 1 mg/kg/day, 3 mg/kg total): 0.1 | toxicity in mice ([6]; highest dose tested (Table I)): no mice showed toxicity at the highest dose tested | Mice surviving 60 days/Mice infected and treated ([6]; oral dose 1 mg/kg/day (total dose 3 mg/kg), P. berghei in mice): 7/7 | Mice surviving 60 days/Mice infected and treated ([6]; oral dose 4 mg/kg/day (total dose 12 mg/kg), P. berghei in mice): 7/7 | Mice surviving 60 days/Mice infected and treated ([6]; oral dose 16 mg/kg/day (total dose 48 mg/kg), P. berghei in mice): 7/7 | Mice surviving 60 days/Mice infected and treated ([6]; oral dose 64 mg/kg/day (total dose 192 mg/kg), P. berghei in mice): 7/7 | blood schizonticidal activity, comparison among compounds of Table I ([6]; oral, P. berghei in mice): the most active | Mice infected and treated/Mice surviving 60 days (P. berghei; 5 mg/kg subcutaneously): 5/4 | Mice infected and treated/Mice surviving 60 days (P. berghei; 10 mg/kg subcutaneously): 5/5 | Mice infected and treated/Mice surviving 60 days (P. berghei; 20 mg/kg subcutaneously): 5/5 | Mice infected and treated/Mice surviving 60 days (P. berghei; 40 mg/kg subcutaneously): 5/5 | Mice infected and treated/Mice surviving 60 days (P. berghei; 80 mg/kg subcutaneously): 5/5 | Mice infected and treated/Mice surviving 60 days (P. berghei; 160 mg/kg subcutaneously): 5/5 | Mice infected and treated/Mice surviving 60 days (P. berghei; 320 mg/kg subcutaneously): 5/5 | Mice infected and treated/Mice surviving 60 days (P. berghei; 640 mg/kg subcutaneously): 5/5 | Giemsa Stain I/T (animals with organism after treatment/animals treated) (Pneumocystis carinii; oral 0.25 mg/kg/day (x21)): 2/10 | Giemsa Stain I/T (animals with organism after treatment/animals treated) (Pneumocystis carinii; oral 1.3 mg/kg/day (x21)): 0/10 | Silver stain I/T (animals with organism after treatment/animals treated) (Pneumocystis carinii; oral 1.3 mg/kg/day (x21)): 0/10 | Giemsa Stain Score (Pneumocystis carinii; [8]): 0.0 | Silver stain Score (Pneumocystis carinii; [8]): 0.0 | Monkeys infected and treated/cured (P. cynomolgi; 0.1 mg/kg/day x7, orally): 0/3 | Monkeys infected and treated/cured (P. cynomolgi; 0.316 mg/kg/day x7, orally): 1/2 | Monkeys infected and treated/cured (P. cynomolgi; 1.0 mg/kg/day x7, orally): 3/3
